Data on nine molecules can be found in paper PMC8305389, “Tuning Photodynamic Properties of BODIPY Dyes, Porphyrins’ Little Sisters” (Molecules, 2021).

Data set [1] concerns human cervical carcinoma (HeLa) cells. Nature of the data set: Photodynamic activity (phototoxicity) after light activation, Neutral Red uptake. As to conditions: Homo sapiens, light or radiation study; HeLa; 12 h incubation; λ > 455 nm, 15.3 mW cm−2, 15 min, 13.7 J cm−2. The format is cell-based. The procedure:
(§1) The human cervical carcinoma (HeLa) and human melanoma (SK-MEL-28) cell lines were purchased from the American Type Cell Culture Collection (ATCC; Manassas, VA, USA). Both cell lines were cultured in Dulbecco’s modified Eagle’s medium (DMEM) without phenol red (Lonza, Verviers, Belgium) and supplemented with 10% heat-inactivated fetal bovine serum (Sigma-Aldrich (Merck, Darmstadt, Germany), 1% penicillin/streptomycin solution (Lonza), 10 mM HEPES buffer (Lonza), and 4 mM ultraglutamine I (alanyl-L-glutamine; Lonza). The cell lines were cultured in 75 cm^2 tissue culture flasks (TPP, Trasadingen, Switzerland) and maintained in a CO2 incubator at 37 °C in a humidified atmosphere of 5% CO2 and subcultured every 3−4 days. For the cytotoxicity experiments (phototoxicity and dark toxicity), cells were seeded into 96-well plates (TPP) at a density of 7.5 × 10^3 (HeLa and SK-MEL-28) cells per well for 24 h.
(§2) Stock solutions of the investigated compounds were prepared in DMSO at a concentration of 0.5 mM (4b) or 1 mM (all other compounds) and were sterilized by filtration through 0.22 μm syringe MCE filters. The stock solutions were diluted by the above-mentioned cell culture medium to the required concentrations. The maximum DMSO concentration in the medium in the experiments was 1% (2% in case of cpd. 4b). Cytoxicity of DMSO at corresponding concentrations (without studied compounds) was assessed in all cytotoxicity experiments as well—no toxicity against SK-MEL-28 or HeLa cells was observed.
(§3) For the photodynamic activity assessment experiments (phototoxicity), both HeLa and SK-MEL-28 cells were incubated overnight (12 h) with the studied compounds. The cells were then carefully and swiftly washed twice with a prewarmed sterile phosphate-buffered saline, fresh cell culture medium was added, and cells were subsequently irradiated for 15 min using a 450 W ozone-free Xe lamp (Newport; intensity reduced to 400 W). The lamp was equipped with a long-pass filter (Newport 20CGA-455) and an 8-cm water filter to cut off undesirable wavelengths and heat radiation, respectively (λ > 455 nm, 15.3 mW cm^−2, 15 min, 13.7 J cm^−2). Cellular viability was measured after an additional 24 h by the above-mentioned NR uptake assay. At least four independent experiments, each in triplicate, were performed.
(§4) The concentrations of the studied compounds that induced a 50% decrease in cellular viability after treatment under the dark conditions (TC50, the median toxic concentration) or after the photodynamic treatment (EC50, the median effective concentration) were calculated using GraphPad Prism software (version 9.1.2; GraphPad Software, Inc., San Diego, CA, USA) for each independent experiment. The data are presented as the means ± standard deviations of these values.

The subject of data set [2] is human melanoma (SK-MEL-28) cells. Described as above. The format is cell-based. The procedure: as §1, §2, §3, §4
In data set [3] the test system is SK-MEL-28 cells. Nature of the data set: Dark toxicity (without irradiation), Neutral Red uptake. It is filed as cell-based, human. The conditions noted are these: 24 h in the dark, compounds precipitated over listed values. The procedure:
as §1, §2
To assess dark toxicities (inherent toxicities of the studied compounds without irradiation), SK-MEL-28 cells were treated with studied PSs for 24 h in the dark. Viability was evaluated after two washing steps using the Neutral Red (NR; Sigma-Aldrich (Merck, Darmstadt, Germany) uptake assay, based on the ability of the living cells to incorporate NR into their intact lysosomes (concentration of NR in cell culture medium was 30 μg/mL and incubation time with NR was 2 h). The absorbance of soluble NR in cell lysate was measured at λ = 540 nm using a Tecan Infinite 200 M plate reader (Tecan, Männedorf, Switzerland). The viability of each experimental group was expressed as the percentage of the untreated controls incubated under the same conditions (100%). After staining (before lysis), the cells were briefly investigated under the microscope to verify changes in cellular morphology and the presence of NR in lysosomes (orange-red spots in the cells). These observations were in agreement with NR measurements.
as §4

Data set [4] is described as follows: Absorption and fluorescence measurements (quantum yield, lifetime). The format is physicochemical. As to conditions: MeOH. The procedure: The singlet oxygen quantum yields (ΦΔ) and the fluorescence quantum yields (ΦF) of tested samples in MeOH were determined using published comparative (relative) methods with rhodamin-G6 used as a reference for fluorescence (ΦF = 0.94 in EtOH [31]), and bengal rose as a reference for singlet oxygen determinations (ΦΔ = 0.76 in MeOH [32]). Singlet oxygen measurements were performed with 1,3-diphenylisobenzofuran as the chemical scavenger of singlet oxygen by monitoring its decomposition at 417 nm. The ΦF values were also determined by an absolute method using an integrating sphere in an FLS1000 fluorimeter (Edinburgh Instruments, Edinburgh, UK). Fluorescence lifetimes were measured on the same fluorimeter upon excitation by HPL510 laser (Edinburgh Instruments, λ = 506.1 nm).

A short description of data set [5]: Photobleaching in serum-containing cell culture medium. It is filed as physicochemical. As to conditions: 10 µM, 1 h of irradiation, 500W halogen lamp. The protocol:
The photobleaching experiments were performed in a serum-containing cell culture medium at a concentration of 10 µM. The samples were prepared by direct dilution from the 1 mM DMSO stock solution (0.5 mM in case of 4b). The quartz cuvette with the sample (2.5 mL) was irradiated by the 500W halogen lamp (Tip) from a distance of 60 cm at room temperature. The light was filtered through a 7 cm water filter to eliminate heat. The absorption spectra were collected every 10 min. The experiment was performed in triplicate.

Data set [6] deals with HeLa cells. The arrangement: method as in PMID 27682881. As to conditions: cited from earlier work; for EC50: HeLa, λ > 570 nm, 12.4 mW cm−2, 15 min, 11.2 J cm−2, read-out: EC50, photodynamic activity; for TC50/EC50, phototherapeutic index: on HeLa cells.
Data set [7] deals with HeLa cells. On the set-up: method as in PMID 27682881. The conditions noted are these: on HeLa cells; cited from earlier work.
Details of data set [8]: method as in PMID 10546544. As to conditions: in MeOH; cited from earlier work.
Data set [9] has as its system SK-MEL-28 cells. As to the kind of experiment: RealTime-Glo Annexin V Apoptosis and Necrosis Assay (cell death determination). The format is cell-based, human. As to conditions: TRAIL 400 ng/mL, paclitaxel 1 μM, digitonin 25 μg/mL. The source says: A RealTime-Glo™ Annexin V Apoptosis and Necrosis Assay (Promega, Madison, WI, USA) was utilized for the real-time assessment of cell death. This monitors phosphatidylserine exposure on the outer leaflet of the cytoplasmic membrane (increase in luminescence signal) together with binding of the membrane-impermeable probe to DNA (increase in fluorescence signal) that accompanies a loss of membrane integrity, typical for late stages of apoptosis (secondary necrosis) or necrotic type of cell death. According to the manufacturer, this assay uses Annexin V fusion proteins containing complementary subunits of luciferase (Annexin V-LgBiT and Annexin V-SmBiT). The luminescence signal is low until both subunits bind to phosphatidylserine, and in close vicinity form functional luciferase.
For this assay, SK-MEL-28 cells were seeded onto 96-well white clear-bottom plates (Corning, New York, NY, USA) in a 1:1 mixture of DMEM and CO2 independent medium (Gibco; supplemented with 10% FBS, 1% penicillin/streptomycin solution and 4 mM ultraglutamine I). The next day, the medium was replaced with a fresh CO2 independent medium, and cells were incubated overnight. The next day, studied PSs dissolved in a CO2 independent medium in concentrations corresponding to their EC85 were added as described above. […] After mixing, samples were placed into a plate reader with a temperature control (Tecan Spark, Männedorf, Switzerland) and measured each 15 min for 24 h—luminescence (200 ms integration time) and fluorescence (λexc = 485 nm; λemi = 530 nm, BPexc/emi = 20 nm; 10 flashes per well, 40 μs integration time).
Digitonin (25 μg/mL), TRAIL (400 ng/mL), and paclitaxel (1 μM) were used as positive controls for membrane-disturbing-agent induced necrosis, extrinsic-pathway-mediated apoptosis, and intrinsic-pathway-mediated apoptosis, respectively. Cell-free wells (no-cell controls) were used to subtract background luminescence and fluorescence for each time point. […]

Details of data set [10]: method as in doi:10.1016/0009-2614(96)00838-X. The conditions noted are these: in EtOH; cited from earlier work.

Marks after values point to notes of the source that are not given here.

Regarding `CC1=CC(C)=[N+]2C1=C(c1ccc(OCCCCCN3C(=O)c4ccccc4C3=O)cc1)c1c(C)cc(C)n1[B-]2(F)F` [2a, 1,3,5,7-Tetramethyl-8-{4-[5-(phthalimidyl)pentyloxy]phenyl}-4,4-difluoro-4-bora-3a,4a-diaza-s-indacene], the EC50 (usually the concentration at which the effect is half-maximal) in [1] came to 3600 ± 190 nM. The “TC50/EC50, phototherapeutic index” value in [2] was >3.92. The EC50 in data set [2] (Homo sapiens, light or radiation study, 12 h incubation, λ > 455 nm, 15.3 mW cm−2, 15 min, 13.7 J cm−2) is 2550 ± 140 nM. Also, the “TC50, dark toxicity” value in the data set on SK-MEL-28 cells [3] is listed as >10^b μM. Further, in data set [4], the “absorption maximum (λmax)” value came to 498 nm and the “emission maximum (λF)” value came out at 507 nm. For the same molecule, the “extinction coefficient (log ε)” value in data set [4] (at λmax) is on record as 4.77. In data set [4] (integrating sphere), the “fluorescence quantum yield, absolute method (ΦF(absol))” value was determined as 0.52. Moreover, the “fluorescence quantum yield, relative method (ΦF(relat))” value in data set [4] (rhodamin-G6 as reference) is recorded as 0.49. Further, the “fluorescence lifetime (τF)” value in data set [4] (λexc = 506.1 nm) is 3.27 ns. Moreover, the “absorption remaining, of the original value, after irradiation (photobleaching)” value in data set [5] is “approximately 87%”.
Consider `CN(C)c1ccc2nc3ccc(=[N+](C)C)cc-3sc2c1` [Methylene blue], for which, in the data set with HeLa cells [6], the half-maximal effective concentration (EC50) is 5150 ± 1930 nM and the “TC50/EC50, phototherapeutic index” value is 4.4 ^d. Besides, the “TC50, dark toxicity” value in the data set on HeLa cells [7] is 22.7 ± 7.9 ^d μM.
In the case of `C=CC1=C(C)c2cc3[nH]c(cc4nc(cc5[nH]c(cc1n2)c(C)c5CCC(=O)O)C(CCC(=O)O)=C4C)c(C)c3C=C` [Pp IX, protoporphyrin IX], in the data set with HeLa cells [6], the EC50 was 800 ± 130 nM and the “TC50/EC50, phototherapeutic index” value is >10 ^d. Besides, the “TC50, dark toxicity” value in the data set on HeLa cells [7] is given as >10 ^b,d μM.
As for `O=C(O)c1c(Cl)c(Cl)c(Cl)c(Cl)c1-c1c2cc(I)c(=O)c(I)c-2oc2c(I)c(O)c(I)cc12` [bengal rose], the “singlet oxygen quantum yield (ΦΔ) of reference” value in data set [8] is listed as 0.76.
Turning to `C[C@@H]1CC[C@@]2(OC1)O[C@H]1[C@@H](O)[C@H]3[C@@H]4CC[C@H]5C[C@@H](O[C@@H]6O[C@H](CO)[C@H](O[C@@H]7O[C@H](CO)[C@@H](O)[C@H](O[C@@H]8OC[C@@H](O)[C@H](O)[C@H]8O)[C@H]7O[C@@H]7O[C@H](CO)[C@H](O)[C@H](O[C@@H]8O[C@H](CO)[C@@H](O)[C@H](O)[C@H]8O)[C@H]7O)[C@H](O)[C@H]6O)[C@H](O)C[C@]5(C)[C@H]4CC[C@]3(C)[C@H]1[C@@H]2C` [digitonin], the “delay between luminescence (Annexin V) and fluorescence (DNA probe) signal surge, positive controls” value (“delay between luminescence” below) in the data set on SK-MEL-28 cells [9] is “simultaneous and immediate rise in luminescence and fluorescence”.
`CC(=O)O[C@H]1C(=O)[C@@]2(C)[C@H]([C@H](OC(=O)c3ccccc3)[C@]3(O)C[C@H](OC(=O)[C@H](O)[C@@H](NC(=O)c4ccccc4)c4ccccc4)C(C)=C1C3(C)C)[C@]1(OC(C)=O)CO[C@@H]1C[C@@H]2O` [paclitaxel]: the “delay between luminescence” value in the data set with SK-MEL-28 cells [9] is ~11.5 h.
For the molecule `CCN=c1cc2oc3cc(NCC)c(C)cc3c(-c3ccccc3C(=O)OCC)c-2cc1C.Cl` [rhodamin-G6], the “fluorescence quantum yield (ΦF) of reference” value in [10] is given as 0.94.
Take `Oc1cccc(-c2c3nc(c(-c4cccc(O)c4)c4ccc([nH]4)c(-c4cccc(O)c4)c4nc(c(-c5cccc(O)c5)c5ccc2[nH]5)CC4)C=C3)c1` [temoporfin]: in the data set with HeLa cells [6], the EC50 was 45 ± 7 nM and the “TC50/EC50, phototherapeutic index” value is 460 ^d. In the data set on HeLa cells [7], the “TC50, dark toxicity” value is given as 20.6 ± 2.5 ^d μM.

B1: TRAIL: inducer of extrinsic-pathway apoptosis, positive control (protein, UniProt P50591 1-281, looked up)
Tumor necrosis factor ligand …: MAMMEVQGGPSLGQTCVLIVIFTVLLQSLCVAVTYVYFTNELKQMQDKYSKSGIACFLKEDDSYWDPNDEESMNSPCWQVKWQLRQLVRKMILRTSEETISTVQEKQQNISPLVRERGPQRVAAHITGTRGRSNTLSSPNSKNEKALGRKINSWESSRSGHSFLSNLHLRNGELVIHEKGFYYIYSQTYFRFQEEIKENTKNDKQMVQYIYKYTSYPDPILLMKSARNSCWSKDAEYGLYSIYQGGIFELKENDRIFVSVTNEHLIDMDHEASFFGAFLVG
Regarding B1, in the data set on SK-MEL-28 cells [9], the “delay between luminescence” value was “approximately 3.5 h”.
